In US11578013B2, “Nitrification inhibitors” (Lincoln University, priority 2020, dated 2023):

Legend:
[1] = relative to table salt; cited from earlier work
[2] = system: nitrification in the soil; assay: Soil column study with static gas chambers (Study 2-14): nitrate-N and N2O emissions; details: 10 kg/ha sprayed to soil surface, soil column
Procedure: To determine the effect of treating the soil with 4-Ethynylanisole on nitrification rate and nitrous oxide emissions, soil column studies with static gas chambers were conducted. The experiment was conducted in cylindrical PVC containers (Diameter=186 mm, Height=240 mm). The containers were filled with soil to half of the container's height (120 mm), leaving 120 mm headspace. The soil was Templeton sandy loam collected from Lincoln University Research Dairy Farm. It was screened using a 5 mm sieve and air-dried to the required moisture level and packed to bulk density of 1 g/cm3.
The experiment was conducted under controlled conditions. The temperature of the soil columns were maintained at around 12° C. by using a water bath to control the temperature.
The treatments included Control (Water), Control (animal urine), Control (urine+DMSO), Control (urine+DCD at 10 kg/ha) and urine+4-Ethynylanisole (10 kg/ha) in DMSO. Synthetic cow urine was applied at 700 kg N/ha (comprising about 87% urea-N and 13% glycine-N), and 4-Ethynylanisole was applied at 10 kg/ha. There were two sets of cores for each treatment, one set were fitted with static gas chambers with removable lids for nitrous oxide sampling, and the other set used for soil sampling. The urine was sprayed to the surface of the soil simulating urine deposition by a grazing animal; DMSO, or DCD or 4-Ethynylanisole mixed with DMSO was also sprayed onto the urine treated soils to simulate the treatment of urine patches. Nitrous oxide gas measurements followed these treatments—as is detailed further below.
For the soil columns that were set up for taking soil samples for analysis of mineral nitrogen, the different treatments were mixed with the soil for soil sampling. Soil moisture was adjusted to 100% field capacity (FC) and maintained between 80 and 100% FC over the duration of the experiment.
Nitrous oxide (N2O) gas sampling was conducted twice a week using the standard procedure (Di et al., 2007). Vials were evacuated prior to sampling. Three gas samples were taken with 20 minute intervals between each sampling. Sampling frequency was reduced to once a week when N2O fluxes decreased in intensity.
Soil sampling was conducted on Day 1, 7, 14, 30, and 60. The soil samples were analysed for mineral nitrogen.

rats = details: female rats; cited from earlier work
[3] = system: N2O emissions in the soil; assay: Field study of nitrous oxide emissions, static gas chamber method, urine-treated pasture soil; details: for nitrous oxide reductions compared with DCD: sprayed onto urine-treated pasture soil
Procedure: (§1) This study was conducted on the Lincoln University Research Dairy Farm, and the soil was a Templeton sandy loam with established perennial ryegrass (Lolium perenne) and white clover (Trifolium repens.) pasture. Metal rings (500 mm diameter and 200 mm height) were inserted into the ground. A water trough sitting on top of the metal rings allowed the placement of static chambers sitting on top of the water trough to provide a gas-tight seal to allow N2O gas sampling.
Synthetic urine with a nitrogen concentration of 7 g N/L was applied to the soil plots confined within the metal rings at the equivalent rate of 700 kg N/ha. […] The plots were irrigated with irrigation water in accordance with local dairy farming practice.
(§2) The gas chamber (500 mm diameter and 120 mm height) was constructed of a metal cylinder insulated with 2.5 cm thick polystyrene foam to avoid heating of the atmosphere in the chamber during sampling. During periods of N2O measurement, the edge of the chamber was placed inside the small water trough which was mounted around the top of each metal ring for gas sampling. At each sampling time, the chamber was placed on top of the soil ring for a total of 40 minutes, and 3 samples, 20 minutes apart, were taken using a syringe through a rubber septum on top of the gas chamber. Samples were taken twice weekly. Each sampling was carried out during the middle of the day between 12:00 h to 14:00 h (Di et al., 2007). The N2O concentration in the samples was analysed using a gas chromatograph (SRI8610C with an Electron Capture Detector (ECD) (SRI Instruments, USA) linked to a Gilson 222XL autosampler (Gilson, France)
as §1, with “To determine the effect of treating the soil with 2-ethynyl-5-methoxypyridine on nitrous oxide emissions under field soil conditions, a field study was conducted using the static gas chamber method. This” for “This”
Synthetic urine with a nitrogen concentration of 7 g N/L was applied to the soil plots confined within the metal rings at the equivalent rate of 700 kg N/ha. 196.25 mg or 39.2 mg of 2-ethynyl-5-methoxypyridine were dissolved in 2 mL DMSO, mixed with 1000 mL of water, and then sprayed on to the mini-plots at the rates of 196.25 mg/plot and 39.2 mg/plot, equivalent to 10 kg/ha and 2 kg/ha, respectively. The plots were irrigated with irrigation water in accordance with local dairy farming practice.
as §2, with “France).” for “France)”
To determine the effect of treating the soil with 3-ethynylpyridine 1-oxide on nitrous oxide emissions under field soil conditions, a field study was conducted using the static gas chamber method. […]

nitrification = assay: Table 1 summary: compounds found to work or not work as nitrification inhibitors, Inhib(%); parameters: concentration or dose not given beside the values; details: test and rate not given
Procedure: The phenotypic screening involved assessing the nitrification inhibition potency of the selected 5000 compounds against a key ammonia oxidizing bacterium responsible for ammonia oxidation in the soil, Nitrosomonas europaea, in 96-well microtiter plates. N. europaea cells were grown in the presence of an ammonium source, and the potential of putative nitrification inhibitors to inhibit the production of nitrite (NO2) was measured relative to untreated cells.
A summary of selected compounds initially found to either work or not work as nitrification inhibitors is detailed in Table 1 below.

[4] = system: nitrification in the soil; assay: Laboratory soil incubation, Templeton sandy loam with synthetic cow urine, nitrate-N; details: for % reduction by NI (nitrate-N): vs urine alone, 30 days; for reducing the nitrification rate compared with DCD: compound at 2 kg/ha vs DCD at 10 kg/ha; for reducing the nitrification rate compared with DCD / nitrate-N concentration in the soil compared with urine alone or urine+DMSO: day 30; for Nitrate-N: 30 days of incubation
Procedure: A Templeton sandy loam was used in this experiment. 500 g of soil (dry weight basis) was packed into a pottle. 50 mL of synthetic cow urine with an N concentration of 7 g N/L (comprising about 87% urea-N and 13% glycine-N) was applied to the soil (equivalent to 700 kg N/ha on weight basis, assuming bulk density of 1 g/cm^3 in the top 10 cm of soil). The 700 kg N/ha application was used to simulate the urine-N application rate under a typical dairy cow urine patch in a grazed pasture.
Control treatments also added to soil were: • urine alone (50 mL); • DMSO (equivalent to 0.9 mL/500 g soil)+urine (50 mL) to determine the effect of DMSO on nitrification rate; • water alone (50 mL) (simulating areas of the soil where no urine was deposited).
Pottles were covered with lids with breathing holes to allow for gas exchange during incubation. Pottles were incubated at 12° C. Soil moisture content was maintained at field capacity by adjusting on weight basis twice a week.
Soil samples were collected and were then thoroughly mixed and subsamples were extracted in a potassium chloride solution and analysed for mineral-N. Soil moisture content was also determined. Samples were taken at 30 days after the start of incubation. […]

Row | SMILES | toxicity rating [1] | N2O—N emissions lower than urine alone control [2] | oral LD50 (rats) | nitrous oxide reductions compared with DCD [3] | N2O emissions ([3]; urine + inhibitor at 2 kg/ha) | N2O emissions ([3]; urine + inhibitor at 10 kg/ha) | Inhib(%) (nitrification) | % reduction by NI (nitrate-N) ([4]; 0.5 kg/ha) | % reduction by NI (nitrate-N) ([4]; 1 kg/ha) | % reduction by NI (nitrate-N) ([4]; 2 kg/ha) | reducing the nitrification rate compared with DCD [4] | Nitrate-N ([4]; urine + inhibitor at 0.5 kg/ha) | Nitrate-N ([4]; urine + inhibitor at 1 kg/ha) | Nitrate-N ([4]; urine + inhibitor at 2 kg/ha) | % reduction by NI (N2O emissions) ([3]; 2 kg/ha, vs urine alone) | nitrate-N concentration in the soil compared with urine alone or urine+DMSO ([4]; 0.5 kg/ha) | nitrate-N concentration in the soil compared with urine alone or urine+DMSO ([4]; 1 kg/ha) | nitrate-N concentration in the soil compared with urine alone or urine+DMSO ([4]; 2 kg/ha) | melting point
1 | N#CNC(=N)N [DCD, dicyandiamide] | 10 times less toxic than table salt | 43.4% | greater than 30,000 mg kg^−1 body weight |  |  |  |  |  |  |  |  |  |  |  |  |  |  |  | 
2 | C#Cc1cncnc1 [3-Ethynyl 1,5 Diazine, 5-Ethynylpyrimidine] |  |  |  | greater than that by DCD | 0.89 kg N2O—N/ha | 0.92 kg N2O—N/ha | 95% | 70% | 97% | 84% | more effective than DCD | 118.1 mg N/kg soil | 13.3 mg N/kg soil | 31.6 mg N/kg soil |  |  |  |  | 
3 | C#Cc1ncccn1 [2-Ethynyl 1,3 Diazine, 2-Ethynylpyrimidine] |  |  |  | greater than that by DCD | 1.2 kg N2O—N/ha | 0.53 kg N2O—N/ha | 94% | 96% | 98% | 84% | more effective than DCD | 17.5 mg N/kg soil | 9.1 mg N/kg soil | 31.8 mg N/kg soil | 91% |  |  |  | 
4 | C#Cc1ccc[n+]([O-])c1 [3-ethynylpyridine 1-oxide] |  |  |  | greater than that by DCD | 3.6 kg N2O—N/ha | 0.79 kg N2O—N/ha | 100% | 43% | 96% | 97% | more effective than DCD | 224.4 mg N/kg soil | 20.8 mg N/kg soil | 8.2 mg N/kg soil |  | lower nitrate-N concentrations | lower nitrate-N concentrations | significantly lower nitrate-N concentrations | 
5 | C#Cc1ccc(OC)nn1 [3-Ethynyl-6-methoxypyridazine] |  |  |  |  |  |  |  |  |  |  |  |  |  |  |  |  | lower nitrate-N concentrations | lower nitrate-N concentrations | 51.7 to 53.1 °C
6 | C#Cc1cnc(OC)nc1 [5-Ethynyl-2-methoxypyrimidine] |  |  |  |  |  |  | 100% |  |  |  |  |  |  |  |  |  | lower nitrate-N concentrations | lower nitrate-N concentrations | 82.3 to 83.1 °C
7 | C#Cc1ncc(OC)cn1 [2-Ethynyl-5-methoxypyrimidine] |  |  |  |  |  |  |  |  |  |  | more effective than DCD |  |  |  |  |  | lower nitrate-N concentrations | significantly lower nitrate-N concentrations | 56.2 to 57.2 °C
8 | C#Cc1ccc(OC)cn1 [2-ethynyl-5-methoxypyridine] |  |  |  | greater than that by DCD | 2 kg N2O—N/ha | 2 kg N2O—N/ha | 100% | 93% | 97% | 78% | more effective than DCD | 28.6 mg N/kg soil | 13.8 mg N/kg soil | 100 mg N/kg soil |  | lower nitrate-N concentrations | lower nitrate-N concentrations | significantly lower nitrate-N concentrations | 
9 | C#Cc1cnc(OC)cn1 [2-Ethynyl-5-methoxypyrazine] |  |  |  |  |  |  |  |  |  |  |  |  |  |  |  |  | lower nitrate-N concentrations | lower nitrate-N concentrations | 41.3 to 42.7 °C
